# Laboratory results published in PubChem BioAssay AID248 (DTP/NCI, 2004).
# Values joined by “and” are separate entries in the source; they are usually repeats but may differ in a detail not shown here. Equal values may be shown once. Inconclusive results and toxic doses are left out.
# System: L1210 leukemia ip in BDF1 mice, survival T/C
# Assay: NCI In Vivo Anticancer Drug Screen. Data for tumor model L1210 Leukemia (intraperitoneal) in B6D2F1 (BDF1) mice
# Settings: endpoint: mean survival time, higher = longer survival
# In short: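 Tumor was transplanted into mice, which were then dosed with test compound or vehicle alone. Survival was recorded for each group, and the treated figure was expressed relative to the control figure.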
# [1] = dose: 100.0 mg/kg/injection, schedule: Q01DX009 (ip), vehicle: saline with Tween-80
# [2] = dose: 100.0 mg/kg/injection, schedule: Q04DX003 (ip), vehicle: saline with Tween-80
# [3] = dose: 200.0 mg/kg/injection, schedule: Q01DX009 (ip), vehicle: saline with Tween-80
# [4] = dose: 100.0 mg/kg/injection, schedule: Q01DX001 (ip), vehicle: saline
# [5] = dose: 100.0 mg/kg/injection, schedule: Q04DX003 (ip), vehicle: Klucel (hydroxypropylcellulose) (HPC)
# [6] = dose: 200.0 mg/kg/injection, schedule: Q04DX003 (ip), vehicle: Klucel (hydroxypropylcellulose) (HPC)
# [7] = dose: 400.0 mg/kg/injection, schedule: Q04DX003 (ip), vehicle: Klucel (hydroxypropylcellulose) (HPC)
# [8] = dose: 100.0 mg/kg/injection, schedule: Q04DX003 (ip), vehicle: saline
# [9] = dose: 200.0 mg/kg/injection, schedule: Q04DX003 (ip), vehicle: saline
# [10] = dose: 400.0 mg/kg/injection, schedule: Q04DX003 (ip), vehicle: saline
# [11] = dose: 100.0 mg/kg/injection, schedule: Q01DX009 (ip), vehicle: saline
# [12] = dose: 200.0 mg/kg/injection, schedule: Q01DX009 (ip), vehicle: saline
compound,measurement,setting,value
CCN1/C(=C/C=C/C=C/c2sc3ccccc3[n+]2CC)Sc2ccccc21,T/C,"dose: 0.04 mg/kg/injection, schedule: Q01DX009 (ip), vehicle: saline",110 % of control
same,T/C,"dose: 0.08 mg/kg/injection, schedule: Q01DX009 (ip), vehicle: saline",93 % of control
same,T/C,"dose: 0.09 mg/kg/injection, schedule: Q01DX009 (ip), vehicle: saline",117 % of control
same,T/C,"dose: 0.09 mg/kg/injection, schedule: Q04DX003 (ip), vehicle: saline",102 % of control
same,T/C,"dose: 0.19 mg/kg/injection, schedule: Q01DX009 (ip), vehicle: saline",122 % of control
same,T/C,"dose: 0.19 mg/kg/injection, schedule: Q04DX002 (ip), vehicle: saline",102 % of control
same,T/C,"dose: 0.19 mg/kg/injection, schedule: Q04DX003 (ip), vehicle: saline",102 % of control
same,T/C,"dose: 0.32 mg/kg/injection, schedule: Q01DX009 (ip), vehicle: saline",88 % of control
same,T/C,"dose: 0.37 mg/kg/injection, schedule: Q01DX001 (ip), vehicle: saline",95 % of control
same,T/C,"dose: 0.38 mg/kg/injection, schedule: Q01DX009 (ip), vehicle: saline",96 % of control
same,T/C,"dose: 0.38 mg/kg/injection, schedule: Q04DX002 (ip), vehicle: saline",103 % of control
same,T/C,"dose: 0.38 mg/kg/injection, schedule: Q04DX003 (ip), vehicle: saline",105 % of control
same,T/C,"dose: 0.39 mg/kg/injection, schedule: Q01DX009 (ip), vehicle: saline",109 % of control
same,T/C,"dose: 0.62 mg/kg/injection, schedule: Q01DX001 (ip), vehicle: other",105 % of control
same,T/C,"dose: 0.75 mg/kg/injection, schedule: Q01DX001 (ip), vehicle: saline",102 % of control
same,T/C,"dose: 0.76 mg/kg/injection, schedule: Q04DX002 (ip), vehicle: saline",107 % of control
same,T/C,"dose: 0.76 mg/kg/injection, schedule: Q04DX003 (ip), vehicle: saline",103 % of control
same,T/C,"dose: 0.8 mg/kg/injection, schedule: Q01DX001 (ip), vehicle: saline",105 % of control
same,T/C,"dose: 1.25 mg/kg/injection, schedule: Q01DX001 (ip), vehicle: other",110 % of control
same,T/C,"dose: 1.5 mg/kg/injection, schedule: Q01DX001 (ip), vehicle: saline",105 % of control
same,T/C,"dose: 1.5 mg/kg/injection, schedule: Q04DX002 (ip), vehicle: saline",110 % of control
same,T/C,"dose: 2.5 mg/kg/injection, schedule: Q01DX001 (ip), vehicle: other",115 % of control
same,T/C,"dose: 3.0 mg/kg/injection, schedule: Q01DX001 (ip), vehicle: saline",110 % of control
same,T/C,"dose: 5.0 mg/kg/injection, schedule: Q01DX001 (ip), vehicle: other",107 % of control
COC(=O)C(CSCSC)NC(=O)/C=C/c1ccccc1C (configuration not stated),T/C,[1],101 % of control
same,T/C,[2],95 % of control
same,T/C,[3],101 % of control
same,T/C,"dose: 200.0 mg/kg/injection, schedule: Q04DX003 (ip), vehicle: saline with Tween-80",93 % of control
same,T/C,"dose: 400.0 mg/kg/injection, schedule: Q01DX009 (ip), vehicle: saline with Tween-80",113 % of control
same,T/C,"dose: 400.0 mg/kg/injection, schedule: Q04DX003 (ip), vehicle: saline with Tween-80",97 % of control
Cc1c(C)c(C)c(CSC(N)=Nc2ccccc2)c(C)c1C,T/C,"dose: 50.0 mg/kg/injection, schedule: Q01DX009 (ip), vehicle: saline with Tween-80",98 % of control
same,T/C,[1],102 % of control
same,T/C,[3],102 % of control
OB(O)C1=CC(c2ccccc2)(c2ccccc2)N=C1,T/C,"dose: 100.0 mg/kg/injection, schedule: Q01DX001 (ip), vehicle: Klucel (hydroxypropylcellulose) (HPC)",103 % of control
same,T/C,"dose: 200.0 mg/kg/injection, schedule: Q01DX001 (ip), vehicle: Klucel (hydroxypropylcellulose) (HPC)",94 % of control
same,T/C,"dose: 400.0 mg/kg/injection, schedule: Q01DX001 (ip), vehicle: Klucel (hydroxypropylcellulose) (HPC)",92 % of control
N#CC(OC(=O)c1ccccc1)c1ccc([N+](=O)[O-])cc1 (configuration not stated),T/C,[4],102 % of control
C=CCOCC(O)CN(CC)c1ccccc1 (configuration not stated),T/C,"dose: 50.0 mg/kg/injection, schedule: Q01DX009 (ip), vehicle: Klucel (hydroxypropylcellulose) (HPC)",95 % of control
same,T/C,"dose: 100.0 mg/kg/injection, schedule: Q01DX009 (ip), vehicle: Klucel (hydroxypropylcellulose) (HPC)",96 % of control
same,T/C,[5],100 % of control
same,T/C,"dose: 200.0 mg/kg/injection, schedule: Q01DX009 (ip), vehicle: Klucel (hydroxypropylcellulose) (HPC)",94 % of control and 102 % of control
same,T/C,[6],102 % of control
same,T/C,"dose: 400.0 mg/kg/injection, schedule: Q01DX009 (ip), vehicle: Klucel (hydroxypropylcellulose) (HPC)",90 % of control
same,T/C,[7],100 % of control
Cc1cc(C)c2c(c1)-c1nc3c(cc1CC2)CCc1c(C)cc(C)cc1-3,T/C,[5],100 % of control
same,T/C,[6],95 % of control
same,T/C,[7],97 % of control
CCCCCCCCCCCCCCCCCCSC(C)(C)SCCCCCCCCCCCCCCCCCC,T/C,"dose: 100.0 mg/kg/injection, schedule: Q04DX002 (ip), vehicle: saline with Tween-80",106 % of control
same,T/C,"dose: 200.0 mg/kg/injection, schedule: Q04DX002 (ip), vehicle: saline with Tween-80",89 % of control
same,T/C,"dose: 400.0 mg/kg/injection, schedule: Q04DX002 (ip), vehicle: saline with Tween-80",92 % of control
c1ccc(SCc2ccncc2)nc1,T/C,[4],100 % of control
same,T/C,"dose: 200.0 mg/kg/injection, schedule: Q01DX001 (ip), vehicle: saline",92 % of control
same,T/C,"dose: 400.0 mg/kg/injection, schedule: Q01DX001 (ip), vehicle: saline",88 % of control
CCC(C)C(CN)(CCCCN1CCCC1)c1cccc2ccccc12 (configuration not stated),T/C,[2],102 % of control
Clc1ccccc1/C=C/C=C1c2ccccc2-c2ccccc21,T/C,[8],98 % of control and 90 % of control
same,T/C,[9],98 % of control
same,T/C,[10],105 % of control and 92 % of control
COC(=O)C1C2OC3C(OC(=O)C31)C2Br (configuration not stated),T/C,[5],91 % of control
same,T/C,[6],96 % of control
same,T/C,[7],102 % of control
O=C1c2ccccc2C(=O)c2c(O)c(N3CCCCC3)cc(O)c21,T/C,[11],91 % of control
same,T/C,[8],88 % of control
same,T/C,[12],89 % of control
same,T/C,[9],88 % of control
same,T/C,"dose: 400.0 mg/kg/injection, schedule: Q01DX009 (ip), vehicle: saline",94 % of control
same,T/C,[10],92 % of control
O=C(Nc1ccc(Cl)cc1)C(O)C(O)C(O)C(O)CO (configuration not stated),T/C,"dose: 50.0 mg/kg/injection, schedule: Q01DX009 (ip), vehicle: saline",100 % of control
same,T/C,[11],103 % of control
same,T/C,[12],100 % of control
Nc1cc(=O)[nH]c(=S)[nH]1,T/C,"dose: 100.0 mg/kg/injection, schedule: Q04DX002 (ip), vehicle: saline",99 % of control
same,T/C,"dose: 200.0 mg/kg/injection, schedule: Q04DX002 (ip), vehicle: saline",92 % of control
same,T/C,"dose: 400.0 mg/kg/injection, schedule: Q04DX002 (ip), vehicle: saline",101 % of control
O=C(CN1CC1)NCc1ccc(CNC(=O)CN2CC2)cc1,T/C,"dose: 1.5 mg/kg/injection, schedule: Q01DX009 (ip), vehicle: carboxymethylcellulose (CMC)",111 % of control
same,T/C,"dose: 6.0 mg/kg/injection, schedule: Q01DX009 (ip), vehicle: carboxymethylcellulose (CMC)",106 % of control
same,T/C,"dose: 6.25 mg/kg/injection, schedule: Q01DX009 (ip), vehicle: carboxymethylcellulose (CMC)",118 % of control
same,T/C,"dose: 7.3 mg/kg/injection, schedule: Q01DX001 (ip), vehicle: carboxymethylcellulose (CMC)",115 % of control
same,T/C,"dose: 11.0 mg/kg/injection, schedule: Q01DX001 (ip), vehicle: carboxymethylcellulose (CMC)",121 % of control
same,T/C,"dose: 11.1 mg/kg/injection, schedule: Q01DX009 (ip), vehicle: carboxymethylcellulose (CMC)",158 % of control
same,T/C,"dose: 12.5 mg/kg/injection, schedule: Q01DX009 (ip), vehicle: carboxymethylcellulose (CMC)",183 % of control
same,T/C,"dose: 16.6 mg/kg/injection, schedule: Q01DX009 (ip), vehicle: carboxymethylcellulose (CMC)",163 % of control
same,T/C,"dose: 25.0 mg/kg/injection, schedule: Q01DX009 (ip), vehicle: carboxymethylcellulose (CMC)",153 % of control and 183 % of control
same,T/C,"dose: 37.5 mg/kg/injection, schedule: Q01DX001 (ip), vehicle: carboxymethylcellulose (CMC)",155 % of control
CCCCn1c(C)cc2c(c1=O)COC(=O)C2(O)CC (configuration not stated),T/C,"dose: 2.5 mg/kg/injection, schedule: Q04DX003 (ip), vehicle: saline",101 % of control
same,T/C,"dose: 5.0 mg/kg/injection, schedule: Q04DX003 (ip), vehicle: saline",98 % of control
same,T/C,"dose: 10.0 mg/kg/injection, schedule: Q04DX003 (ip), vehicle: saline",100 % of control
same,T/C,"dose: 20.0 mg/kg/injection, schedule: Q04DX003 (ip), vehicle: saline",96 % of control
same,T/C,"dose: 40.0 mg/kg/injection, schedule: Q04DX003 (ip), vehicle: saline",94 % of control
